# Assay results from patent US20260060250A1, “HERBICIDAL PYRIDONE DERIVATIVES” (SYNGENTA CROP PROTECTION AG, priority 2022, published 2026).
# Legend:
# Type in all cases: in vivo
# [1] = test system: Amaranthus palmeri (AMAPA); assay: Pre-emergence Test (Table B1); conditions: 1000 g/ha, evaluated after 13 days
# Setaria faberi (SETFA) [2] = assay: Pre-emergence Test (Table B1); design: key: 5=81-100%; 4=61-80%; 3=41-60%; 2=21-40%; 1=0-20%; 0=inactive; conditions: 1000 g/ha, evaluated after 13 days
# [3] = test system: Echinochloa crus-galli (ECHCG); assay: Pre-emergence Test (Table B1); design: key: 5=81-100%; 4=61-80%; 3=41-60%; 2=21-40%; 1=0-20%; 0=inactive; conditions: 1000 g/ha, evaluated after 13 days
# [4] = test system: Amaranthus retroflexus (AMARE); assay: Pre-emergence Test (Table B1); conditions: 1000 g/ha, evaluated after 13 days
# Zea mays (ZEAMX) [5] = assay: Pre-emergence Test (Table B1); design: key: 5=81-100%; 4=61-80%; 3=41-60%; 2=21-40%; 1=0-20%; 0=inactive; conditions: 1000 g/ha, evaluated after 13 days
# [6] = test system: Ipomoea hederacea (IPOHE); assay: Pre-emergence Test (Table B1); design: key: 5=81-100%; 4=61-80%; 3=41-60%; 2=21-40%; 1=0-20%; 0=inactive; conditions: 1000 g/ha, evaluated after 13 days
# [7] = test system: Amaranthus palmeri (AMAPA); assay: Post-emergence Test (Table B2); conditions: evaluated after 13 days
# Protocol: (§1) Seeds of a variety of test species are sown in standard soil in pots (Amaranthus palmeri (AMAPA), Setaria faberi (SETFA), Echinochloa crus-galli (ECHCG), (Amaranthus retroflexus (AMARE), Zea mays (ZEAMX), Ipomoea hederacea (IPOHE)). After 8 days cultivation under controlled conditions in a glasshouse (at 24° C./16° C., day/night; 14 hours light; 65% humidity), the plants are sprayed with an aqueous spray solution derived from the formulation of the technical active ingredient in acetone/water (50:50) solution containing 0.5% Tween 20 (polyoxyethelyene sorbitan monolaurate, CAS RN 9005-64-5). Compounds are applied at 1000 g/ha unless otherwise stated. The test plants are then grown in a glasshouse under controlled conditions in a glasshouse (at 24° C./16° C., day/night; 14 hours light; 65% humidity) and watered twice daily. After 13 days the test is evaluated for the percentage damage caused to the plant.
# [8] = test system: Amaranthus retroflexus (AMARE); assay: Post-emergence Test (Table B2); conditions: evaluated after 13 days
# Protocol: as §1
# Setaria faberi (SETFA) [9] = assay: Post-emergence Test (Table B2); conditions: evaluated after 13 days
# Protocol: as §1
# [10] = test system: Echinochloa crus-galli (ECHCG); assay: Post-emergence Test (Table B2); design: key: 5=81-100%; 4=61-80%; 3=41-60%; 2=21-40%; 1=0-20%; 0=inactive; conditions: evaluated after 13 days
# Protocol: as §1
# [11] = test system: Ipomoea hederacea (IPOHE); assay: Post-emergence Test (Table B2); design: key: 5=81-100%; 4=61-80%; 3=41-60%; 2=21-40%; 1=0-20%; 0=inactive; conditions: evaluated after 13 days
# Protocol: as §1
# Zea mays (ZEAMX) [12] = assay: Post-emergence Test (Table B2); design: key: 5=81-100%; 4=61-80%; 3=41-60%; 2=21-40%; 1=0-20%; 0=inactive; conditions: evaluated after 13 days
# Protocol: as §1
# [13] = lower rate of 250 g per hectare
Structure (SMILES),"percentage damage caused to the plant, AMAPA [1]","percentage damage caused to the plant, SETFA (Setaria faberi (SETFA) [2])","percentage damage caused to the plant, ECHCG [3]","percentage damage caused to the plant, AMARE [4]","percentage damage caused to the plant, ZEAMX (Zea mays (ZEAMX) [5])","percentage damage caused to the plant, IPOHE [6]","percentage damage caused to the plant, AMAPA ([7]; 1000 g/ha)","percentage damage caused to the plant, AMARE ([8]; 1000 g/ha)","percentage damage caused to the plant, SETFA (Setaria faberi (SETFA) [9]; 1000 g/ha)","percentage damage caused to the plant, ECHCG ([10]; 1000 g/ha)","percentage damage caused to the plant, IPOHE ([11]; 1000 g/ha)","percentage damage caused to the plant, ZEAMX (Zea mays (ZEAMX) [12]; 1000 g/ha)","percentage damage caused to the plant, AMAPA [7, 13]","percentage damage caused to the plant, AMARE [8, 13]","percentage damage caused to the plant, SETFA (Setaria faberi (SETFA) [9]; [13])","percentage damage caused to the plant, ECHCG [10, 13]","percentage damage caused to the plant, IPOHE [11, 13]","percentage damage caused to the plant, ZEAMX (Zea mays (ZEAMX) [12]; [13])"
"C=C(C)COC(=O)c1cc(-c2c(C)n(CC)c(-c3ccc(Cl)c(Cl)c3)c(C(=O)O)c2=O)c(F)cc1Cl [Compound 1, 5-[4-chloro-2-fluoro-5-(2-methylallyloxycarbonyl)phenyl]-2-(3,4-dichlorophenyl)-1-ethyl-6-methyl-4-oxo-pyridine-3-carboxylic acid]",5 (5=81-100%),4 (4=61-80%),1 (1=0-20%),5 (5=81-100%),0,2 (2=21-40%),5 (5=81-100%),5 (5=81-100%),4 (4=61-80%),5 (5=81-100%),2 (2=21-40%),2 (2=21-40%),,,,,,
"C#CCOC(=O)c1cc(-c2c(C)n(CC)c(-c3ccc(Cl)c(Cl)c3)c(C(=O)O)c2=O)c(F)cc1Cl [Compound 2, 5-(4-chloro-2-fluoro-5-prop-2-ynoxycarbonyl-phenyl)-2-(3,4-dichlorophenyl)-1-ethyl-6-methyl-4-oxo-pyridine-3-carboxylic acid]",5 (5=81-100%),1 (1=0-20%),0,5 (5=81-100%),0,0,5 (5=81-100%),5 (5=81-100%),5 (5=81-100%),4 (4=61-80%),4 (4=61-80%),5 (5=81-100%),,,,,,
"C=CCOC(=O)c1cc(-c2c(C)n(CC)c(-c3ccc(Cl)c(Cl)c3)c(C(=O)O)c2=O)c(F)cc1Cl [Compound 3, 5-(5-allyloxycarbonyl-4-chloro-2-fluoro-phenyl)-2-(3,4-dichlorophenyl)-1-ethyl-6-methyl-4-oxo-pyridine-3-carboxylic acid]",5 (5=81-100%),1 (1=0-20%),0,5 (5=81-100%),0,2 (2=21-40%),5 (5=81-100%),5 (5=81-100%),5 (5=81-100%),5 (5=81-100%),4 (4=61-80%),4 (4=61-80%),,,,,,
"C=CC(C)OC(=O)c1ccc(F)c(-c2c(C)n(CC)c(-c3ccc(Cl)c(Cl)c3)c(C(=O)O)c2=O)c1 (centres unmarked) [Compound 5, 2-(3,4-dichlorophenyl)-1-ethyl-5-[2-fluoro-5-(1-methylallyloxycarbonyl)phenyl]-6-methyl-4-oxo-pyridine-3-carboxylic acid]",,,,,,,,,,,,,3 (3=41-60%),2 (2=21-40%),1 (1=0-20%),0,1 (1=0-20%),2 (2=21-40%)
"CCn1c(C)c(-c2cc(C(=O)OC(C)CN(C)C)ccc2F)c(=O)c(C(=O)O)c1-c1ccc(Cl)c(Cl)c1 (centres unmarked) [Compound 6, 2-(3,4-dichlorophenyl)-5-[5-[2-(dimethylamino)-1-methyl-ethoxy]carbonyl-2-fluoro-phenyl]-1-ethyl-6-methyl-4-oxo-pyridine-3-carboxylic acid]",,,,,,,4 (4=61-80%),3 (3=41-60%),1 (1=0-20%),1 (1=0-20%),0,1 (1=0-20%),,,,,,
"CCn1c(C)c(-c2cc(C(=O)OC(C)C(F)(F)F)ccc2F)c(=O)c(C(=O)O)c1-c1ccc(Cl)c(Cl)c1 (centres unmarked) [Compound 7, 2-(3,4-dichlorophenyl)-1-ethyl-5-[2-fluoro-5-(2,2,2-trifluoro-1-methyl-ethoxy)carbonyl-phenyl]-6-methyl-4-oxo-pyridine-3-carboxylic acid]",5 (5=81-100%),2 (2=21-40%),2 (2=21-40%),5 (5=81-100%),1 (1=0-20%),1 (1=0-20%),5 (5=81-100%),5 (5=81-100%),4 (4=61-80%),3 (3=41-60%),1 (1=0-20%),2 (2=21-40%),,,,,,
"CCn1c(C)c(-c2cc(C(=O)OC(C)C3CC3)ccc2F)c(=O)c(C(=O)O)c1-c1ccc(Cl)c(Cl)c1 (centres unmarked) [Compound 8, 5-[5-(1-cyclopropylethoxycarbonyl)-2-fluoro-phenyl]-2-(3,4-dichlorophenyl)-1-ethyl-6-methyl-4-oxo-pyridine-3-carboxylic acid]",4 (4=61-80%),0,0,5 (5=81-100%),0,0,5 (5=81-100%),4 (4=61-80%),2 (2=21-40%),1 (1=0-20%),1 (1=0-20%),3 (3=41-60%),,,,,,
"CCn1c(C)c(-c2cc(C(=O)OC(C)C3CCCC3)ccc2F)c(=O)c(C(=O)O)c1-c1ccc(Cl)c(Cl)c1 (centres unmarked) [Compound 16, 5-[5-(1-cyclopentylethoxycarbonyl)-2-fluoro-phenyl]-2-(3,4-dichlorophenyl)-1-ethyl-6-methyl-4-oxo-pyridine-3-carboxylic acid]",,,,,,,4 (4=61-80%),5 (5=81-100%),1 (1=0-20%),0,0,1 (1=0-20%),,,,,,
"C#CCC(C)OC(=O)c1ccc(F)c(-c2c(C)n(CC)c(-c3ccc(Cl)c(Cl)c3)c(C(=O)O)c2=O)c1 (centres unmarked) [Compound 17, 2-(3,4-dichlorophenyl)-1-ethyl-5-[2-fluoro-5-(1-methylbut-3-ynoxycarbonyl)phenyl]-6-methyl-4-oxo-pyridine-3-carboxylic acid]",5 (5=81-100%),2 (2=21-40%),1 (1=0-20%),5 (5=81-100%),1 (1=0-20%),2 (2=21-40%),5 (5=81-100%),5 (5=81-100%),2 (2=21-40%),2 (2=21-40%),,1 (1=0-20%),,,,,,
"CCn1c(C)c(-c2cc(C(=O)OC(C)C#N)ccc2F)c(=O)c(C(=O)O)c1-c1ccc(Cl)c(Cl)c1 (centres unmarked) [Compound 41, 5-[5-(1-cyanoethoxycarbonyl)-2-fluoro-phenyl]-2-(3,4-dichlorophenyl)-1-ethyl-6-methyl-4-oxo-pyridine-3-carboxylic acid]",,,,,,,,,,,,,2 (2=21-40%),2 (2=21-40%),2 (2=21-40%),0,1 (1=0-20%),0
